Assay results as given in the CheMixHub viscosity set.
Where “and” joins values, the source holds several entries; their conditions need not be identical. Equal values may be shown once. ± gives the uncertainty stated by the source.

Test: xn = mol fraction of the nth substance listed

CC(C)C[C@H](N)C(=O)O + O
Conditions	viscosity
293.15 K, 100 kPa, x1 = 0.000274	1.013 ± 0.061 mPa·s
293.15 K, 100 kPa, x1 = 0.000645	1.038 ± 0.12 mPa·s
293.15 K, 100 kPa, x1 = 0.000947	1.055 ± 0.12 mPa·s
293.15 K, 100 kPa, x1 = 0.00132	1.076 ± 0.12 mPa·s
293.15 K, 100 kPa, x1 = 0.00136	1.04 ± 0.061 mPa·s
293.15 K, 100 kPa, x1 = 0.00153	1.044 ± 0.061 mPa·s
293.15 K, 100 kPa, x1 = 0.00162	1.093 ± 0.12 mPa·s
293.15 K, 100 kPa, x1 = 0.00172	1.048 ± 0.061 mPa·s
293.15 K, 100 kPa, x1 = 0.002001	1.114 ± 0.12 mPa·s
293.15 K, 100 kPa, x1 = 0.00234	1.133 ± 0.12 mPa·s
298.15 K, 100 kPa, x1 = 0.000274	0.9 ± 0.06 mPa·s
298.15 K, 100 kPa, x1 = 0.000292	0.8985 ± 0.12 mPa·s
298.15 K, 100 kPa, x1 = 0.000459	0.905 ± 0.06 mPa·s
298.15 K, 100 kPa, x1 = 0.000806	0.913 ± 0.06 mPa·s
298.15 K, 100 kPa, x1 = 0.000995	0.917 ± 0.06 mPa·s
298.15 K, 100 kPa, x1 = 0.00117	0.921 ± 0.06 mPa·s
298.15 K, 100 kPa, x1 = 0.00132	0.9262 ± 0.12 mPa·s
298.15 K, 100 kPa, x1 = 0.00136	0.925 ± 0.06 mPa·s
298.15 K, 100 kPa, x1 = 0.00153	0.929 ± 0.06 mPa·s
298.15 K, 100 kPa, x1 = 0.00162	0.9344 ± 0.12 mPa·s
298.15 K, 100 kPa, x1 = 0.00172	0.933 ± 0.061 mPa·s
298.15 K, 100 kPa, x1 = 0.002001	0.9447 ± 0.12 mPa·s
298.15 K, 100 kPa, x1 = 0.00234	0.9538 ± 0.12 mPa·s
303.15 K, 100 kPa, x1 = 0.000274	0.807 ± 0.06 mPa·s
303.15 K, 100 kPa, x1 = 0.000292	0.8043 ± 0.12 mPa·s
303.15 K, 100 kPa, x1 = 0.000459	0.811 ± 0.06 mPa·s
303.15 K, 100 kPa, x1 = 0.000632	0.815 ± 0.06 mPa·s
303.15 K, 100 kPa, x1 = 0.000645	0.8124 ± 0.12 mPa·s
303.15 K, 100 kPa, x1 = 0.000806	0.819 ± 0.06 mPa·s
303.15 K, 100 kPa, x1 = 0.000947	0.8194 ± 0.12 mPa·s
303.15 K, 100 kPa, x1 = 0.000995	0.823 ± 0.06 mPa·s
303.15 K, 100 kPa, x1 = 0.00117	0.826 ± 0.06 mPa·s
303.15 K, 100 kPa, x1 = 0.00132	0.828 ± 0.12 mPa·s
303.15 K, 100 kPa, x1 = 0.00136	0.83 ± 0.06 mPa·s
303.15 K, 100 kPa, x1 = 0.00153	0.834 ± 0.06 mPa·s
303.15 K, 100 kPa, x1 = 0.00162	0.8351 ± 0.12 mPa·s
303.15 K, 100 kPa, x1 = 0.00172	0.838 ± 0.06 mPa·s
303.15 K, 100 kPa, x1 = 0.002001	0.8439 ± 0.12 mPa·s
303.15 K, 100 kPa, x1 = 0.00234	0.8517 ± 0.12 mPa·s
303.15 K, 101 kPa, x1 = 0.0004	0.804 ± 0.007 mPa·s
303.15 K, 101 kPa, x1 = 0.0007	0.809 ± 0.007 mPa·s
303.15 K, 101 kPa, x1 = 0.001	0.817 ± 0.007 mPa·s and 0.827 ± 0.008 mPa·s
303.15 K, 101 kPa, x1 = 0.0018	0.834 ± 0.008 mPa·s
305.15 K, 101 kPa, x1 = 0.0003598	0.7908 ± 0.0051 mPa·s
305.15 K, 101 kPa, x1 = 0.0007199	0.7974 ± 0.0052 mPa·s
305.15 K, 101 kPa, x1 = 0.00108	0.8054 ± 0.0052 mPa·s
305.15 K, 101 kPa, x1 = 0.001439	0.8126 ± 0.0052 mPa·s
305.15 K, 101 kPa, x1 = 0.001798	0.8203 ± 0.0053 mPa·s
305.15 K, 101 kPa, x1 = 0.002157	0.8283 ± 0.0053 mPa·s
308.15 K, 100 kPa, x1 = 0.000274	0.729 ± 0.06 mPa·s
308.15 K, 100 kPa, x1 = 0.000292	0.7252 ± 0.12 mPa·s
308.15 K, 100 kPa, x1 = 0.000632	0.736 ± 0.06 mPa·s
308.15 K, 100 kPa, x1 = 0.000645	0.7323 ± 0.12 mPa·s
308.15 K, 100 kPa, x1 = 0.000806	0.74 ± 0.06 mPa·s
308.15 K, 100 kPa, x1 = 0.000947	0.7384 ± 0.12 mPa·s
308.15 K, 100 kPa, x1 = 0.000995	0.744 ± 0.06 mPa·s
308.15 K, 100 kPa, x1 = 0.00117	0.747 ± 0.06 mPa·s
308.15 K, 100 kPa, x1 = 0.00132	0.7458 ± 0.12 mPa·s
308.15 K, 100 kPa, x1 = 0.00153	0.755 ± 0.06 mPa·s
308.15 K, 100 kPa, x1 = 0.00162	0.752 ± 0.12 mPa·s
308.15 K, 100 kPa, x1 = 0.00172	0.758 ± 0.06 mPa·s
308.15 K, 100 kPa, x1 = 0.002001	0.7597 ± 0.12 mPa·s
308.15 K, 100 kPa, x1 = 0.00234	0.7665 ± 0.12 mPa·s
308.15 K, 101 kPa, x1 = 0.0007	0.731 ± 0.007 mPa·s
308.15 K, 101 kPa, x1 = 0.001	0.739 ± 0.007 mPa·s and 0.746 ± 0.007 mPa·s
308.15 K, 101 kPa, x1 = 0.0018	0.753 ± 0.007 mPa·s
310.15 K, 101 kPa, x1 = 0.0003598	0.709 ± 0.0047 mPa·s
310.15 K, 101 kPa, x1 = 0.0007199	0.7151 ± 0.0047 mPa·s
310.15 K, 101 kPa, x1 = 0.00108	0.7218 ± 0.0048 mPa·s
310.15 K, 101 kPa, x1 = 0.001439	0.7272 ± 0.0048 mPa·s
310.15 K, 101 kPa, x1 = 0.001798	0.7334 ± 0.0048 mPa·s
310.15 K, 101 kPa, x1 = 0.002157	0.7401 ± 0.0049 mPa·s
313.15 K, 100 kPa, x1 = 0.000274	0.663 ± 0.06 mPa·s
313.15 K, 100 kPa, x1 = 0.000292	0.6581 ± 0.12 mPa·s
313.15 K, 100 kPa, x1 = 0.000459	0.667 ± 0.06 mPa·s
313.15 K, 100 kPa, x1 = 0.000632	0.67 ± 0.06 mPa·s
313.15 K, 100 kPa, x1 = 0.000645	0.6643 ± 0.12 mPa·s
313.15 K, 100 kPa, x1 = 0.000806	0.674 ± 0.06 mPa·s
313.15 K, 100 kPa, x1 = 0.000947	0.6696 ± 0.12 mPa·s
313.15 K, 100 kPa, x1 = 0.00132	0.676 ± 0.12 mPa·s
313.15 K, 100 kPa, x1 = 0.00162	0.6814 ± 0.12 mPa·s
313.15 K, 100 kPa, x1 = 0.002001	0.688 ± 0.12 mPa·s
313.15 K, 100 kPa, x1 = 0.00234	0.694 ± 0.12 mPa·s
313.15 K, 101 kPa, x1 = 0.0004	0.658 ± 0.006 mPa·s
313.15 K, 101 kPa, x1 = 0.0007	0.663 ± 0.006 mPa·s
313.15 K, 101 kPa, x1 = 0.001	0.669 ± 0.006 mPa·s and 0.677 ± 0.006 mPa·s
313.15 K, 101 kPa, x1 = 0.0018	0.682 ± 0.006 mPa·s
315.15 K, 101 kPa, x1 = 0.0003598	0.6544 ± 0.0045 mPa·s
315.15 K, 101 kPa, x1 = 0.0007199	0.6599 ± 0.0045 mPa·s
315.15 K, 101 kPa, x1 = 0.00108	0.6653 ± 0.0045 mPa·s
315.15 K, 101 kPa, x1 = 0.001439	0.6699 ± 0.0045 mPa·s
315.15 K, 101 kPa, x1 = 0.001798	0.6752 ± 0.0046 mPa·s
315.15 K, 101 kPa, x1 = 0.002157	0.6803 ± 0.0046 mPa·s
318.15 K, 101 kPa, x1 = 0.0007	0.605 ± 0.006 mPa·s
318.15 K, 101 kPa, x1 = 0.001	0.611 ± 0.006 mPa·s and 0.618 ± 0.006 mPa·s
318.15 K, 101 kPa, x1 = 0.0018	0.622 ± 0.006 mPa·s
